According to ChEMBL document CHEMBL5244260, “Aldose reductase and protein tyrosine phosphatase 1B inhibitors as a promising therapeutic approach for diabetes mellitus” (Eur J Med Chem, 2020):
pIC50, pKi: −log10 of the molar value.

Legend:
[1] = target: T1, Tyrosine-protein phosphatase non-receptor type 1 (Homo sapiens, UniProt P18031); assay: Inhibition of PTP1B (unknown origin) assessed as inhibition constant
T1 sequence (P18031 whole entry): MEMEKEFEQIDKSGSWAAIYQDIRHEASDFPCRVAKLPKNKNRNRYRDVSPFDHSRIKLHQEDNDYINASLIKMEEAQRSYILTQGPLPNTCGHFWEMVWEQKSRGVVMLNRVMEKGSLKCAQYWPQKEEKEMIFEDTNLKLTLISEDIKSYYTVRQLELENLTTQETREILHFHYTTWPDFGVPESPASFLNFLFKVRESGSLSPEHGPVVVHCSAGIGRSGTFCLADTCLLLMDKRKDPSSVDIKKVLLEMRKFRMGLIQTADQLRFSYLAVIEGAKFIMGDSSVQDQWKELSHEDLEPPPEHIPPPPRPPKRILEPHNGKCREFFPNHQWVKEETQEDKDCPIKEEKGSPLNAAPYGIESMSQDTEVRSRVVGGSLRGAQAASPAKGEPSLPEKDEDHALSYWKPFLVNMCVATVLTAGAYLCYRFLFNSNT

Homo sapiens [2] = species: Homo sapiens; assay: Selectivity ratio of Ki for PTP1B (unknown origin) to Ki for TCPTP (unknown origin)
[3] = Inhibition of ALR2 in rat lens using D,L-glyceraldehyde as substrate in presence of NADPH; format: tissue-based
[4] = target: T1, Tyrosine-protein phosphatase non-receptor type 1; assay: Inhibition of PTP1B (unknown origin)
[5] = target: T1, Tyrosine-protein phosphatase non-receptor type 1; assay: Inhibition of human PTP1B (1 to 321 residues) expressed in Escherichia coli using FDP as substrate
Homo sapiens [6] = species: Homo sapiens; assay: Selectivity ratio of IC50 for human PTP1B (1 to 321 residues) to IC50 for human CD45 (564 to […] residues)
[7] = target: Aldo-keto reductase family 1 member B1 (Homo sapiens, UniProt P15121); assay: Inhibition of ALR2 (unknown origin)
[8] = target: T1, Tyrosine-protein phosphatase non-receptor type 1; assay: Inhibition of human PTP1B (1 to 411 residues) expressed in Escherichia coli BL21 (DE3) using GNGDpYMPMSPKS as phosphopeptide substrate incubated for 30 mins by malachite green reagent assay
[9] = target: T1, Tyrosine-protein phosphatase non-receptor type 1; assay: Inhibition of human PTP1B (1 to 298 residues) expressed in Escherichia coli using FDP as substrate by microplate reader
[10] = target: T1, Tyrosine-protein phosphatase non-receptor type 1; assay: Inhibition of PTP1B (unknown origin) using OMFP as substrate by fluorescence assay
[11] = Inhibition of ALR2 in calf lens using D,L-glyceraldehyde as substrate in presence of NADPH by spectrophotometric assay; format: tissue-based, Bos taurus
[12] = target: T2, Receptor-type tyrosine-protein phosphatase C (Homo sapiens, UniProt P08575); assay: Inhibition of human CD45 (564 to […] residues) expressed in Escherichia coli using FDP as substrate incubated for 10 min
T2 sequence (P08575 whole entry): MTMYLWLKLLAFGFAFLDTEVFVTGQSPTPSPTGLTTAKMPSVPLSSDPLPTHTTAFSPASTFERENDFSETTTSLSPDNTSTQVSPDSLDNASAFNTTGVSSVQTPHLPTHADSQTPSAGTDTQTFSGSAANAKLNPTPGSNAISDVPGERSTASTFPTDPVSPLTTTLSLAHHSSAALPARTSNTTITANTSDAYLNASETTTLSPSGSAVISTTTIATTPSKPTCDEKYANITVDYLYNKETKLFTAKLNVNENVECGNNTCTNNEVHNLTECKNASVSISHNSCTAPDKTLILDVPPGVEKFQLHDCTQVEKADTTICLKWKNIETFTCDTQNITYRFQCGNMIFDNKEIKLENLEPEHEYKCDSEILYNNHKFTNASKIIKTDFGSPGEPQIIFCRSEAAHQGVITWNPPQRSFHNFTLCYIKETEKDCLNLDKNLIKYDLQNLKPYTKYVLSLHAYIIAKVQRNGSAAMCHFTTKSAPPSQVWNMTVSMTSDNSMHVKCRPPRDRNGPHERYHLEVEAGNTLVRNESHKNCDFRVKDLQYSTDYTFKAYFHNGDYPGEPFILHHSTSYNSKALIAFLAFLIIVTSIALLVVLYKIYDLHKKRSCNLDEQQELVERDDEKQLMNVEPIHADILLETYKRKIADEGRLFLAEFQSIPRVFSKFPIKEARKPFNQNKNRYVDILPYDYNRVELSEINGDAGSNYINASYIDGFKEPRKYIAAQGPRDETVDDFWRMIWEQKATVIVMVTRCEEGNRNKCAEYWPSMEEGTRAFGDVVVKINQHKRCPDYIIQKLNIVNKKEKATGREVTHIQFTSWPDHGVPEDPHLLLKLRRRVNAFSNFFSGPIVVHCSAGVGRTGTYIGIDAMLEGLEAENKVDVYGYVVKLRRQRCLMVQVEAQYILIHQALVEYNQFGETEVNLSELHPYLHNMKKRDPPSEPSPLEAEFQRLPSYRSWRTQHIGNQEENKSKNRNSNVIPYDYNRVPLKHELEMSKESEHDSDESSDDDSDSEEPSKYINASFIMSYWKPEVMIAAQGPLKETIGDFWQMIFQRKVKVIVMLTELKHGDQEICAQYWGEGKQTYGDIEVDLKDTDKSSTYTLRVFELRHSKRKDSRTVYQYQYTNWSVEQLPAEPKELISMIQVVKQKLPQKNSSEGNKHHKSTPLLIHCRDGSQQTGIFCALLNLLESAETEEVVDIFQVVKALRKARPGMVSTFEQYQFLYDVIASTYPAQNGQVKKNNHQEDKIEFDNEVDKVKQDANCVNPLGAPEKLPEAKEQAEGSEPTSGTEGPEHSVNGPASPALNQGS

[13] = Inhibition of ALR2 in Sprague-Dawley rat lens using D,L-glyceraldehyde as substrate preincubated for 10 mins in presence of NADPH followed by substrate addition and measured after 5 mins by spectrophotometric assay; format: tissue-based

## COC(=O)c1c(O)cccc1OC/C=C/c1cccc(-c2onc(C(=O)O)c2CO)c1
[1]
  pKi: 6.04
Homo sapiens [2]
  Ratio Ki: 20

## CC(C(=O)O)N1C(=O)C(=O)N(Cc2cccc([N+](=O)[O-])c2)C1=O (stereo not drawn)
[3]
  pIC50: 5.70

## CCCCCCCCCCCCCCOc1ccccc1NC(=O)c1cccc(F)c1C(=O)O
[4]
  pIC50: 6.97

## O=C(OCc1ccccc1)C(Cc1ccc(C(F)(F)P(=O)(O)O)cc1)(Cc1ccc(C(F)(F)P(=O)(O)O)cc1)C(=O)OCc1ccccc1
[5]
  pIC50: 7.40
Homo sapiens [6]
  Ratio IC50: 250

## CCCCCCCCc1ccc(-n2c(C)ccc2-c2ccc(O[C@@H](Cc3ccccc3)C(=O)O)cc2)cc1
[4]
  pIC50: 7.05

## Cc1cccc(-c2nn(-c3ccccc3)cc2/C=C2\SC(=S)N(c3ccc(C(=O)NCC(=O)O)cc3)C2=O)c1
[7]
  pIC50: 7.22

## CCCCCCCC/C(=C\Cn1oc(=O)n(CC(=O)O)c1=O)c1cccc(OCc2nc(-c3ccc(C(F)(F)F)cc3)oc2C)c1
[4]
  pIC50: 6.80

## O=C(Cc1ccccc1)C(Cc1ccc(C(F)(F)P(=O)(O)O)cc1)(Cc1ccc(C(F)(F)P(=O)(O)O)cc1)C(=O)Cc1ccccc1
[5]
  pIC50: 7.40
Homo sapiens [6]
  Ratio IC50: 250

## CCCCCCCC/C(=C/Cn1oc(=O)n(CC(=O)O)c1=O)c1cccc(OCc2nc(-c3ccc(C(F)(F)F)cc3)oc2C)c1
[4]
  pIC50: 6.92

## O=[N+]([O-])c1cc(S(=O)(=O)C(F)(F)F)ccc1Oc1ccc(S(=O)(=O)c2ccc(Oc3ccc(S(=O)(=O)C(F)(F)F)cc3[N+](=O)[O-])cc2)cc1
[4]
  pIC50: 6.40

## O=C1CN(c2ccc(-c3ccc[nH]3)cc2O)S(=O)(=O)N1
[8]
  pIC50: 7.10

## O=C(O)CNC(=O)c1ccc(N2C(=O)/C(=C/c3cn(-c4ccccc4)nc3-c3cccc(F)c3)SC2=S)cc1
[7]
  pIC50: 7.40

## COC(=O)c1c(O)cccc1OC/C=C/c1cccc(-c2onc(C(=O)O)c2N)c1
[1]
  pKi: 5.68
Homo sapiens [2]
  Ratio Ki: 20

## Oc1c(Br)cc(-c2ncc(-c3ccccc3)s2)c(Br)c1O
[4]
  pIC50: 6.27

## COc1ccc2cc(O)c(N3CC(=O)NS3(=O)=O)cc2c1
[8]
  pIC50: 7.10

## O=C1CN(c2c(O)cc(CC3CCCCC3)cc2F)S(=O)(=O)N1
[8]
  pIC50: 7.10

## CS(=O)(=O)Oc1c(Cl)cccc1Cc1ccc(N2CC(=O)NS2(=O)=O)c(O)c1
[8]
  pIC50: 7.10

## O=P(O)(O)C(F)(F)c1ccc(C[C@](/C=C/c2ccccc2)(c2nc3ccccc3s2)n2nnc3ccccc32)cc1
[9]
  pIC50: 7.64

## CC(C(=O)O)N1C(=O)C(=O)N(Cc2ccc(Cl)c(Cl)c2)C1=O (stereo not drawn)
[3]
  pIC50: 7.12

## O=C(c1ccc(CN(Cc2ccc(C(=O)C(F)(F)P(=O)(O)O)cc2)S(=O)(=O)c2cc(F)ccc2F)cc1)C(F)(F)P(=O)(O)O
[10]
  pIC50: 6.30

## O=P(O)(O)C(F)(F)c1ccc(C[C@](c2ccc(C(F)(F)P(=O)(O)O)cc2)(c2ccc(F)c(F)c2)n2nnc3ccccc32)cc1
[9]
  pIC50: 7.89

## O=C(O)CCCCCO/N=C(\c1ccnnc1)c1cccc(C(F)(F)F)c1
[11]
  pIC50: 5.00

## CC(C)(C)OC(=O)COc1ccc(CC2=C(c3c[nH]c4ccccc34)c3ccccc3C(=O)C2=O)cc1
[4]
  pIC50: 6.19

## C/C(=N\NC(=S)Nc1cccc(Br)c1)c1ccc2c(c1)NC(=O)CO2
[7]
  pIC50: 6.28

## O=C(c1ccc(CN(Cc2ccc(C(=O)C(F)(F)P(=O)(O)O)cc2)S(=O)(=O)c2ccc(Br)cc2OC(F)(F)F)cc1)C(F)(F)P(=O)(O)O
[10]
  pIC50: 6.30

## C/C(=C\Cn1oc(=O)[nH]c1=O)c1cccc(OCc2nc(-c3ccc(C(F)(F)F)cc3)oc2-c2ccccc2)c1
[4]
  pIC50: 6.52

## O=C1C(=O)N(C2(C(=O)O)CCCCC2)C(=O)N1Cc1ccc(Cl)cc1Cl
[3]
  pIC50: 7.30

## CCCCCCCCCCCCCCOc1ccccc1NC(=O)c1c(C(=O)O)cc(Cl)c(Cl)c1Cl
[4]
  pIC50: 6.74

## CCCCCCCCCCCCCCCCOc1ccccc1NC(=O)c1ncccc1C(=O)O
[4]
  pIC50: 6.85

## O=P(O)(O)C(F)(F)c1ccc(C[C@@](c2ccccc2)(c2ccc(C(F)(F)P(=O)(O)O)cc2)n2nnc3ccccc32)cc1
[9]
  pIC50: 7.80

## O=C(c1ccccc1)C(Cc1ccc(C(F)(F)P(=O)(O)O)cc1)(Cc1ccc(C(F)(F)P(=O)(O)O)cc1)c1ccccc1
[5]
  pIC50: 8.22
[12]
  pIC50: < 4.30

## CC(C)OC(=O)c1cc(CC(Cc2ccc(C(F)(F)P(=O)(O)O)cc2)(C(=O)c2ccccc2)c2ccccc2)ccc1C(F)(F)P(=O)(O)O (stereo not drawn)
[5]
  pIC50: 8.22
[12]
  pIC50: < 4.30

## O=C(O)C(=O)Nc1sc2c(c1C(=O)O)CCN(CCc1ccccc1)C2
Homo sapiens [2]
  Ratio Ki: 2

## CCCCCNC(=O)[C@H](Cc1cccc(OCC(=O)O)c1C(=O)O)NC(=O)[C@H](Cc1ccccc1)NC(=O)Oc1ccccc1
[4]
  pIC50: 6.06

## O=[N+]([O-])c1ccccc1Sc1ccc(O)cc1
[11]
  pIC50: 6.24

## COC(=O)c1c(O)cccc1OC/C=C/c1ccc(F)c(-c2cc(C(=O)O)no2)c1
[1]
  pKi: 5.16
Homo sapiens [2]
  Ratio Ki: 20

## COc1cccc2c1C=CC1CC(=O)N(/C=C/CC(=O)O)N=C21 (stereo not drawn)
[11]
  pIC50: 5.41

## O=C(O)Cn1c2ccccc2n2c(=O)c(=O)n(Cc3ccccc3)nc12
[13]
  pIC50: 6.44

## O=C(O)C(=O)c1sc2c(c1C(=O)O)CCN[C@@H]2CNCc1ccc(O)cc1
[4]
  pIC50: 6.70

## CCCCCCCC/C(=C\Cn1oc(=O)[nH]c1=O)c1cccc(OCc2nc(-c3ccc(C(F)(F)F)cc3)oc2C)c1
[4]
  pIC50: 6.40

## COc1cccc2c1C=CC1CC(=O)N(C/C=C/C(=O)O)N=C21 (stereo not drawn)
[11]
  pIC50: 5.37

## O=C(c1ccccc1)C(Cc1ccc(C(F)(F)P(=O)(O)O)c(Br)c1)c1ccccc1 (stereo not drawn)
[5]
  pIC50: 8.22
[12]
  pIC50: < 4.30

## COC(=O)C(Cc1ccc(C(F)(F)P(=O)(O)O)cc1)(Cc1ccc(C(F)(F)P(=O)(O)O)cc1)C(=O)OCc1ccccc1
[5]
  pIC50: 7.40
Homo sapiens [6]
  Ratio IC50: 250

## CCCCCCCC/C(=C/Cn1oc(=O)[nH]c1=O)c1cccc(OCc2nc(-c3ccc(C(F)(F)F)cc3)oc2C)c1
[4]
  pIC50: 6.70

## C/C(=N\NC(=S)Nc1cccc(F)c1)c1ccc2c(c1)NC(=O)CO2
[7]
  pIC50: 6.72

## O=C(O)CCCCO/N=C(\c1cccc(C(F)(F)F)c1)c1ccncn1
[11]
  pIC50: 4.92

## O=C(c1ccccc1)C(Cc1ccc(C(F)(F)P(=O)(O)O)c(Cl)c1)c1ccccc1 (stereo not drawn)
[5]
  pIC50: 8.22
[12]
  pIC50: < 4.30

## CCc1cc(CC(NC(C)=O)C(=O)NCCCCC(=O)N[C@@H](CCSC)C(=O)O)ccc1N(C(=O)C(=O)O)c1ccccc1C(=O)O (stereo partly drawn)
[4]
  pIC50: 7.11

## CCc1cc(Br)ccc1S(=O)(=O)N(Cc1ccc(C(=O)C(F)(F)P(=O)(O)O)cc1)Cc1ccc(C(=O)C(F)(F)P(=O)(O)O)cc1
[10]
  pIC50: 6.30

## CCc1cc(CC(NC(C)=O)C(=O)NCCCCOc2cc(Cl)cc(O)c2C(=O)OC)ccc1N(C(=O)C(=O)O)c1ccccc1C(=O)O (stereo not drawn)
Homo sapiens [2]
  Ratio Ki: 6

## CC(C)OC(=O)C(Cc1ccc(C(F)(F)P(=O)(O)O)cc1)(Cc1ccc(C(F)(F)P(=O)(O)O)cc1)C(=O)OC(C)C
[5]
  pIC50: 7.40
Homo sapiens [6]
  Ratio IC50: 250

## Cc1ccc(S(=O)(=O)N(Cc2ccc(C(=O)C(F)(F)P(=O)(O)O)cc2)Cc2ccc(C(=O)C(F)(F)P(=O)(O)O)cc2)cc1
[10]
  pIC50: 6.30
